{"source": "ChEMBL document CHEMBL1136428", "about": "“Structure-activity relationships of novel anti-malarial agents. Part 6: N-(4-arylpropionylamino-3-benzoylphenyl)-[5-(4-nitrophenyl)-2-furyl]acrylic acid amides” (Bioorg Med Chem Lett, 2003)", "note": "pIC50: −log10 of the molar value."}
{"tested_on": "Plasmodium falciparum", "test": "Anti-malarial activity against Plasmodium falciparum Dd2", "assay_type": "functional, organism-based"}
{"smiles": "O=C(/C=C/c1ccc(-c2ccc([N+](=O)[O-])cc2)o1)Nc1ccc(NC(=O)CCc2ccc(O)cc2)c(C(=O)c2ccccc2)c1", "pIC50": 5.48}
{"smiles": "O=C(/C=C/c1ccc(-c2ccc([N+](=O)[O-])cc2)o1)Nc1ccc(NC(=O)CCc2cccc(C(F)(F)F)c2)c(C(=O)c2ccccc2)c1", "pIC50": 6.20}
{"smiles": "O=C(/C=C/c1ccc(-c2ccc([N+](=O)[O-])cc2)o1)Nc1ccc(NC(=O)CCc2ccc(C(F)(F)F)cc2)c(C(=O)c2ccccc2)c1", "pIC50": 7.21}
{"smiles": "O=C(/C=C/c1ccc(-c2ccc([N+](=O)[O-])cc2)o1)Nc1ccc(NC(=O)CCc2ccc(Br)cc2)c(C(=O)c2ccccc2)c1", "pIC50": 6.77}
{"smiles": "N[C@H](Cc1ccccc1)C(=O)Nc1ccc(NC(=O)/C=C/c2ccc(-c3ccc([N+](=O)[O-])cc3)o2)cc1C(=O)c1ccccc1", "pIC50": 5.92}
{"smiles": "O=C(/C=C/c1ccc(-c2ccc([N+](=O)[O-])cc2)o1)Nc1ccc(NC(=O)CCc2ccc(F)cc2)c(C(=O)c2ccccc2)c1", "pIC50": 6.36}
{"smiles": "O=C(/C=C/c1ccc(-c2ccc([N+](=O)[O-])cc2)o1)Nc1ccc(NC(=O)CCc2ccc([N+](=O)[O-])cc2)c(C(=O)c2ccccc2)c1", "pIC50": 5.85}
{"smiles": "CC(C)(C)OC(=O)N[C@H](Cc1ccccc1)C(=O)Nc1ccc(NC(=O)/C=C/c2ccc(-c3ccc([N+](=O)[O-])cc3)o2)cc1C(=O)c1ccccc1", "pIC50": 6.05}
{"smiles": "O=C(/C=C/c1ccc(-c2ccc([N+](=O)[O-])cc2)o1)Nc1ccc(NC(=O)CCc2ccccc2)c(C(=O)c2ccccc2)c1", "pIC50": 6.51}
{"smiles": "NC(Cc1ccc(C(F)(F)F)cc1)C(=O)Nc1ccc(NC(=O)/C=C/c2ccc(-c3ccc([N+](=O)[O-])cc3)o2)cc1C(=O)c1ccccc1", "note": "(configuration not stated)", "pIC50": 6.15}
{"smiles": "CC(C)(C)OC(=O)N[C@@H](Cc1ccccc1)C(=O)Nc1ccc(NC(=O)/C=C/c2ccc(-c3ccc([N+](=O)[O-])cc3)o2)cc1C(=O)c1ccccc1", "pIC50": 6.38}
{"smiles": "O=C(/C=C/c1ccc(-c2ccc([N+](=O)[O-])cc2)o1)Nc1ccc(NC(=O)CCc2ccccc2C(F)(F)F)c(C(=O)c2ccccc2)c1", "pIC50": 5.96}
{"smiles": "N[C@@H](Cc1ccccc1)C(=O)Nc1ccc(NC(=O)/C=C/c2ccc(-c3ccc([N+](=O)[O-])cc3)o2)cc1C(=O)c1ccccc1", "pIC50": 6.24}
{"smiles": "Cc1ccc(CCC(=O)Nc2ccc(NC(=O)/C=C/c3ccc(-c4ccc([N+](=O)[O-])cc4)o3)cc2C(=O)c2ccccc2)cc1", "pIC50": 6.36}
{"smiles": "O=C(/C=C/c1ccc(-c2ccc([N+](=O)[O-])cc2)o1)Nc1ccc(NC(=O)CCc2ccc(Cl)cc2)c(C(=O)c2ccccc2)c1", "pIC50": 6.89}
{"smiles": "CC(C)(C)OC(=O)NC(Cc1ccc(C(F)(F)F)cc1)C(=O)Nc1ccc(NC(=O)/C=C/c2ccc(-c3ccc([N+](=O)[O-])cc3)o2)cc1C(=O)c1ccccc1", "note": "(configuration not stated)", "pIC50": 5.49}
{"smiles": "COc1ccc(CCC(=O)Nc2ccc(NC(=O)/C=C/c3ccc(-c4ccc([N+](=O)[O-])cc4)o3)cc2C(=O)c2ccccc2)cc1", "pIC50": 5.89}
